Measurements as given in PMC2919388, “A Screening Pipeline for Antiparasitic Agents Targeting Cryptosporidium Inosine Monophosphate Dehydrogenase” (PLoS Neglected Tropical Diseases, 2010).
Read-outs that look alike come from different tables or passages of the source.

Assays:
CpIMPDH [1] = target: T1, CpIMPDH (Cryptosporidium parvum, UniProt Q8T6T2); assay: CpIMPDH enzyme inhibition (without or with BSA); type: biochemical; conditions: compound not previously described
Protocol: We wondered if some compounds might be binding nonspecifically to other proteins. To test this hypothesis, CpIMPDH inhibition was also evaluated in the presence of BSA [22]. […] Selectivity in the T. gondii model also correlates well with the potency of enzyme inhibition in the presence of BSA (Figure 7C; r = −0.92, p<0.0001). These observations indicate that the IC50 value in the presence of BSA is a useful proxy for antiparasitic activity modelled by T. gondii-CpIMPDH proliferation.

HCT-8 cells = assay: Fluorescent HCT-8 host cell growth assay; type: cell-based, human; conditions: for activity at 25 µM: Homo sapiens, HCT-8, compound at 25 μM, relative to DMSO alone
Protocol: HCT-8 cells were transfected with plasmid pmaxGFP (Amaxa) using Lipofectamine (Invitrogen). Fluorescent lines were then selected and cloned using cell sorting. Confluent monolayers of pmaxGFP expressing cells were harvested from T75 flasks and passed through a 40 µm cell strainer. Cells were seeded at 4000 cells per well into black, optical quality, thin bottom, 96-well plates. All test compounds were diluted in DMSO as described. The fluorescence was read daily with a SpectraMax M22/M2e (Molecular Devices) plate reader (Ex 485, Em 530) for 6–7 days. Percent inhibition was calculated on a day within the exponential phase of growth.

C. parvum [2] = assay: High-content imaging C. parvum growth assay (FITC-VVL); type: cell-based, Cryptosporidium parvum; conditions: for EC50: Cryptosporidium parvum, HCT-8, 48 h, growth in HCT-8 cells, 48 hours
Protocol: The human ileocecal adenocarcinoma epithelial cell line, HCT-8, was used to support C. parvum infection in vitro. HCT-8 cells were maintained in RPMI-1640 (Hyclone) supplemented with 10% FBS, 1 mM sodium pyruvate, 50 U/m penicillin, 50 µg/ml streptomycin, and amphotericin B. Cryptosporidium parvum oocysts were a kind gift from either Dr. Mead (Emory University) or Dr. Kissinger (University of Georgia). HCT-8 cells (2×10^5) were seeded into black, optical quality, thin bottom, 96-well plates (DB Falcon) to achieve a 70% confluent monolayer on the day of infection. To facilitate oocyst excystation, a procedure described by Gut et al., was followed. Briefly, oocysts were washed twice with 1 ml of PBS (pH 7.2), incubated for 10 minutes at 37°C in 1 ml 10 mM of HCl and then incubated for a further 10 minutes in 0.2 ml of 200 µM sodium taurocholate at 15°C [40]. This oocyst suspension was diluted directly with DMEM (Hyclone) supplemented with 2% FBS, 50 U/ml penicillin, 50 µg/ml streptomycin, amphotericin B and 0.2 mM L-glutamine (infection medium) to inoculate host cell monolayers at 5×10^5 oocysts per well. Host cell monolayers were incubated for 3 hours at 37°C prior to removal of unexcysted oocysts by aspiration and PBS wash. Infection medium was then added to the monolayers and infection was allowed to progress for 48 hours.
The VVL IFA was performed in a 96-well format. Following 48 hours of culture C. parvum infected HCT-8 cells were washed with PBS and fixed with 0.2 ml/well of 3% paraformaldehyde/PBS, permeabilized with 0.25% Triton-X-100/PBS and blocked with 4% BSA/PBS. 0.1 ml of fluorescein (FITC)-conjugated VVL (Vector Labs 0.5 µg/ml) in 1% BSA/PBS was applied to wells and incubated for 45 minutes. The plates were washed twice with 200 µl/well of PBS. In the first wash DAPI was included at 0.1 µg/ml. Finally 200 µl/well of PBS was added to the plates prior to storage at 4°C protected from light.
Confocal images were acquired using a BD Biosciences Bioimager P435. The instrument was programmed to automatically change position and focus, capture montage images of 9–16, 40× fields per well, and then compress and save the image files. Object finding algorithms were developed for the recognition of FITC-VVL labelled C. parvum parasites and DAPI labelled host cell nuclei using Attovision Software (BD Biosciences). Briefly, to identify FITC-VVL labelled parasites, the object finding algorithm included, a flat field correction, a polygon shape setting, a 3×3 rolling ball filter, manual pixel intensity thresholding (100 min – 4095 max), and minimum and maximum object size cut-offs of 5 pixels and 350 pixels respectively. The algorithm optimised for finding DAPI labelled host cell nuclei also included flat field correction and polygon shape setting, but applied a 25×25 rolling ball filter which is more suitable for larger objects, an automated pixel intensity threshold, minimum and maximum object size cut-offs of 200 pixels and 4000 pixels respectively, and a watershed step with an erosion factor of 8 to aid in the separation of adjacent densely packed nuclei. Note that the intensity and area size cut off exclude detection of the much smaller parasite nuclei (the human genome is three hundred times larger than the C. parvum genome).
The object finding analysis steps described above recorded the number and area of objects per montage image. The output files along with a plate map file were then passed to an automated analysis pipeline (Pipeline Pilot Software, Accelrys) to calculate the mean number of parasites, the ratio of parasite number to host cell nuclei number, the mean area of parasites and host cell nuclei by well, and the percentage growth by treatment as compared to the no drug control. These analyses were exported in graphical format for each plate and the numerical values tabulated in html format. […]

wild-type T. gondii = assay: Fluorescent T. gondii growth assay, wild-type strain; type: cell-based, Toxoplasma gondii; conditions: Toxoplasma gondii, wild-type T. gondii, no added xanthine; read-out: T. gondii model EC50 WT
Source text: (§1) Wild-type T. gondii and T. gondii-ΔHXGPRT parasites were transfected with plasmid ptubYFPYFsagCAT [37] which drives constitutive cytoplasmic expression of two copies of the yellow fluorescent protein. Similarly, plasmid pCTR2T [38] was transfected into T. gondii-CpIMPDH resulting in constitutive cytoplasmic expression of a tandem of the tomato variant of the red fluorescent protein [39]. Fluorescent parasites were selected and cloned by cell sorting using a MoFlo Legacy instrument (Beckman Coulter, Inc). Growth of fluorescent clones was monitored in 96 well plates as previously described. Briefly, fluorescence was read daily with a SpectraMax M22/M2e (Molecular Devices) plate reader (Ex 485, Em 530) for 6–7 days. For each of the three fluorescent T. gondii clones percent growth inhibition was calculated on a day within the exponential phase of growth for the purpose of determining an IC50 for each compound.
(§2) Supplementary file pntd.0000794.s002.tif: Figure S2 Obtaining an EC50 value for T. gondii growth. Fluorescent T. gondii parasites are seeded into 96-well plates and spiked with test compound. Fluorescence is measured daily with a SpectraMax M22/M2e (Molecular Devices) plate reader for 6–7 days. The fluorescence readings on a day during the exponential phase of the growth curve, for example day 4 in A, are used to calculated percent growth inhibition. These values are fitted using the 4 parameter model y = D+(A–D)/(1+(x/C)^B) where D is the minimum value, A is the maximum value, C is the EC50 and B is the Hill coefficient, using the SoftMax Pro v5 software, as illustrated in B. The absolute EC50 is recorded at the x intercept where y = 50. (0.33 MB TIF) Click here for additional data file.

T. gondii-CpIMPDH = assay: Fluorescent T. gondii growth assay, CpIMPDH reporter strain; type: cell-based, Toxoplasma gondii; conditions: for Selectivity = EC50(T. gondii-wild-type)/EC50(T. gondii-CpIMPDH): Figure 5 Sel; for EC50: Toxoplasma gondii, read-out: T. gondii model EC50 CpIMPDH, T. gondii-CpIMPDH, absence of xanthine
Source text: as §1
To facilitate screening of antiparasitic activity, we constructed a T. gondii reporter parasite that mirrors the Cryptosporidium purine metabolism. Figure 1 summarizes the main differences between the two parasites in this pathway. We started with a T. gondii knockout mutant that, like C. parvum, lacks the ability to salvage xanthine and guanine via HXGPRT (T. gondii-ΔHXGPRT [41]) and introduced the CpIMPDH gene under the control of a T. gondii promoter. Next the native T. gondii IMPDH gene was disrupted by replacing the entire coding sequence with a chloramphenicol acetyl transferase cassette using a new cosmid-based gene targeting approach. […] This manipulation created strain T. gondii-CpIMPDH-ΔHXGPRT-ΔTgIMPDH. Lastly, we introduced a fluorescent protein cassette and isolated stable transgenic parasites by cell sorting. The resulting strain is referred to as T. gondii-CpIMPDH. […] We similarly engineered fluorescent versions of wild-type T. gondii and T. gondii-ΔHXGPRT to serve as controls.
as §2

T. gondii-ΔHXGPRT = assay: Fluorescent T. gondii growth assay, ΔHXGPRT strain; type: cell-based; conditions: Toxoplasma gondii, read-out: T. gondii model EC50 ΔHXGPRT, T. gondii-ΔHXGPRT
Source text: as §1, §2

CpIMPDH [3] = target: T1, CpIMPDH; conditions: read-out: CpIMPDH Inhibition IC50 + BSA; cited from earlier work
C. parvum [4] = conditions: several previous studies; read-out: reported EC50 values for C. parvum growth; cited from earlier work

T1 sequence (Q8T6T2 whole entry): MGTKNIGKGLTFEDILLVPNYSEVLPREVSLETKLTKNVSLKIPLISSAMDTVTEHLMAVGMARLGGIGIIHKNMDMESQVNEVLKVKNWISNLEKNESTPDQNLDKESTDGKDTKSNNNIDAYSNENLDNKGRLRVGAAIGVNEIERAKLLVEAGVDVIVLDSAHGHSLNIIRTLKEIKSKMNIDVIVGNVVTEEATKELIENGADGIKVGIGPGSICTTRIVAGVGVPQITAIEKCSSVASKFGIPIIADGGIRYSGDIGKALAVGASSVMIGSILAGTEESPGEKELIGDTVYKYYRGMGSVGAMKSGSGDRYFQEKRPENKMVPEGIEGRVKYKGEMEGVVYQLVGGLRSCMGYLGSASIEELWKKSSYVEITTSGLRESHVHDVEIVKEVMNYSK

Row | SMILES | IC50 (CpIMPDH [1]; in the presence of BSA) [µM] | IC50 (CpIMPDH [1]; without BSA) [µM] | activity at 25 µM (HCT-8 cells) [%] | EC50 (C. parvum [2]) [µM] | EC50 (wild-type T. gondii) [µM] | selectivity for the T. gondii-CpIMPDH parasite over wild-type T. gondii (T. gondii-CpIMPDH) [fold] | Selectivity = EC50(T. gondii-wild-type)/EC50(T. gondii-CpIMPDH) (T. gondii-CpIMPDH) | EC50 (T. gondii-CpIMPDH) [µM] | EC50 (T. gondii-ΔHXGPRT) [µM] | IC50 (CpIMPDH [3]) [µM] | EC50 (C. parvum [4]) [µM] | effect on host cell (HCT-8) growth (HCT-8 cells; in words) | mean parasite area (C. parvum [2]; relative to DMSO alone) | parasites observed relative to the no drug control (C. parvum [2]; very high concentrations of paromomycin) [%]
1 | CC(Oc1cccc2ncccc12)c1cn(-c2ccc(Cl)cc2)nn1 (stereo not shown) [Compound A99] | 0.076 ± 0.009 | 0.031 ± 0.001 | 58 ± 8 | 12 to 25 | 4.7 | ≥ 17 | > 17 | < 0.2 | 3.4 | – | – | – | – | –
2 | C[C@@H](Oc1cccc2c1ccc[n+]2[O-])c1cn(-c2ccc(Cl)cc2)nn1 [Compound A109] | – | – | 89 ± 16 | 12 to 25 | > 25 | ≥ 36 | > 86 | 0.3 ± 0.1 | > 25 | 0.05 ± 0.01 | – | – | – | –
3 | NC[C@@H]1O[C@H](O[C@H]2[C@@H](O)[C@H](O[C@@H]3[C@@H](O)[C@H](N)C[C@H](N)[C@H]3O[C@H]3O[C@H](CO)[C@@H](O)[C@H](O)[C@H]3N)O[C@@H]2CO)[C@H](N)[C@@H](O)[C@@H]1O [paromomycin, reference compound] | – | – | – | 97 | – | – | – | – | – | – | 65 to 130 | negligible effects on the growth of these cells | significantly reduce the mean parasite area in a dose responsive manner | ~30
